Test results from paper PMC11003488 (Journal of Enzyme Inhibition and Medicinal Chemistry, 2023).

Experiments:
SW-620 = assay: NCI-60 SRB growth inhibition, one-dose and five-dose; format: cell-based; conditions: Homo sapiens; for GI50: SW-620; for inhibition at 10 µM: SW-620, read-out: percent growth inhibition
U251 = assay: as above; format: cell-based; conditions: Homo sapiens; for GI50: U-251; for inhibition at 10 µM: U-251, read-out: percent growth inhibition
[1] = tested on: Ovarian cancer cell lines; assay: NCI-60 SRB growth inhibition, subpanel; format: cell-based, human; conditions: Homo sapiens, read-out: GI50 MG-MID
SN12C = assay: NCI-60 SRB growth inhibition, one-dose and five-dose; format: cell-based; conditions: Homo sapiens; for inhibition at 10 µM: read-out: percent growth inhibition
M14 = assay: as above; format: cell-based; conditions: Homo sapiens; for GI50: M14; for inhibition at 10 µM: M14, read-out: percent growth inhibition
NCI-H23 = assay: as above; format: cell-based; conditions: Homo sapiens; for GI50: NCI-H23; for inhibition at 10 µM: NCI-H23, read-out: percent growth inhibition
RPMI-8226 = assay: as above; format: cell-based; conditions: Homo sapiens; for GI50: RPMI-8226; for inhibition at 10 µM: RPMI-8226, read-out: percent growth inhibition
[2] = tested on: Prostate cancer cell lines; assay: NCI-60 SRB growth inhibition, subpanel; format: cell-based, human; conditions: Homo sapiens, read-out: GI50 MG-MID
MOLT-4 = assay: NCI-60 SRB growth inhibition, one-dose and five-dose; format: cell-based; conditions: Homo sapiens; for GI50: MOLT-4; for inhibition at 10 µM: MOLT-4, read-out: percent growth inhibition
Human VEGFR-2 = Human VEGFR-2 (Homo sapiens, UniProt P35968); assay: VEGFR-2 inhibition assay; format: biochemical
Chain of Human VEGFR-2 (P35968 20-1356): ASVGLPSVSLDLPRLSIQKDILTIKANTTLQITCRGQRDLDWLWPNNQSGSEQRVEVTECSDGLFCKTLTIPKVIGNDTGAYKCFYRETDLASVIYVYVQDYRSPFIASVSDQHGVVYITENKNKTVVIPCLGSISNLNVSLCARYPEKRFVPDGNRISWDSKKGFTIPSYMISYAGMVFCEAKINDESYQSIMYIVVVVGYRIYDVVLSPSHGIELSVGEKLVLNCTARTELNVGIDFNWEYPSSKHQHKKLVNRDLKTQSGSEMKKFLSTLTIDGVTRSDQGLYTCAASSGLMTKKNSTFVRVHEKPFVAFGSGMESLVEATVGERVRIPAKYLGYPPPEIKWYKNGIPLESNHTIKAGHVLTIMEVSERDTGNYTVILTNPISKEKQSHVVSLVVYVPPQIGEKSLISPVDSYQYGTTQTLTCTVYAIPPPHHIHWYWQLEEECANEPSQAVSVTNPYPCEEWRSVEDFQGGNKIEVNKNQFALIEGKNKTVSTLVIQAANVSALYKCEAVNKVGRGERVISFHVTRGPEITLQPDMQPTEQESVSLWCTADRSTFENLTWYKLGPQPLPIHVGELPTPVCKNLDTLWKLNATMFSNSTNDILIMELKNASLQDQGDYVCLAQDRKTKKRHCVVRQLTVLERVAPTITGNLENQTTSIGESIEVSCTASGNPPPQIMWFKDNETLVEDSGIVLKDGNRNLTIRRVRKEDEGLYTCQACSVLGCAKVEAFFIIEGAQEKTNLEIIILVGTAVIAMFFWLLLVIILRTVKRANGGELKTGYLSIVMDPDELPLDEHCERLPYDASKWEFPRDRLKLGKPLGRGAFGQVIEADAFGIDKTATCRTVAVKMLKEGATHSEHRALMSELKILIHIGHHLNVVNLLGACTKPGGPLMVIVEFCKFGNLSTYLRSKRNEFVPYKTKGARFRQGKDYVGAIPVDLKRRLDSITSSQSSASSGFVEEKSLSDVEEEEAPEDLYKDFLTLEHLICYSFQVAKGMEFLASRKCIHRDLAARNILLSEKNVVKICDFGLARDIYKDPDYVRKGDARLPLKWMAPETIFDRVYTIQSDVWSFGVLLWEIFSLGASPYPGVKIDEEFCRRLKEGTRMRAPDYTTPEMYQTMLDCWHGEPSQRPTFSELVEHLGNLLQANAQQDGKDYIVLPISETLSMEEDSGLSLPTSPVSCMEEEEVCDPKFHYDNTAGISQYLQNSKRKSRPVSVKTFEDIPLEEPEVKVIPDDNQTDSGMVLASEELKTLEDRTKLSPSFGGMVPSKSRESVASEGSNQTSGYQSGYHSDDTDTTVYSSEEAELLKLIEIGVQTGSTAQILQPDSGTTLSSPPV

UO-31 = assay: NCI-60 SRB growth inhibition, one-dose and five-dose; format: cell-based; conditions: Homo sapiens; for GI50: UO-31; for inhibition at 10 µM: UO-31, read-out: percent growth inhibition
EKVX = assay: as above; format: cell-based; conditions: Homo sapiens; for inhibition at 10 µM: read-out: percent growth inhibition
Renal cancer cell lines = assay: NCI-60 SRB growth inhibition, subpanel; format: cell-based, human; conditions: Homo sapiens, read-out: GI50 MG-MID
SK-MEL-28 = assay: NCI-60 SRB growth inhibition, one-dose and five-dose; format: cell-based; conditions: Homo sapiens; for GI50: SK-MEL-28; for inhibition at 10 µM: SK-MEL-28, read-out: percent growth inhibition
HL-60(TB) = assay: cells; format: cell-based; conditions: Homo sapiens; for GI50: HL-60; for inhibition at 10 µM: HL-60, read-out: percent growth inhibition
[3] = Cytotoxicity towards normal fibroblasts, safety index; format: cell-based, human; conditions: human, WI-38 normal fibroblast cells
[4] = tested on: WI-38 normal human fibroblast cells; assay: as above; format: cell-based; conditions: WI-38 versus cancer cell lines
TK-10 = assay: NCI-60 SRB growth inhibition, one-dose and five-dose; format: cell-based; conditions: Homo sapiens; for GI50: TK-10; for inhibition at 10 µM: TK-10, read-out: percent growth inhibition
Colon cancer cell lines = assay: NCI-60 SRB growth inhibition, subpanel; format: cell-based, human; conditions: Homo sapiens, read-out: GI50 MG-MID
SK-OV-3 = assay: NCI-60 SRB growth inhibition, one-dose and five-dose; format: cell-based; conditions: Homo sapiens; for GI50: SK-OV-3; for inhibition at 10 µM: SK-OV-3, read-out: percent growth inhibition
NSCLC cell lines = assay: NCI-60 SRB growth inhibition, subpanel; format: cell-based, human; conditions: Homo sapiens, read-out: GI50 MG-MID
CNS cancer cell lines = assay: NCI-60 SRB growth inhibition, subpanel; format: cell-based, human; conditions: Homo sapiens, read-out: GI50 MG-MID
MDA-MB-468 = assay: NCI-60 SRB growth inhibition, one-dose and five-dose; format: cell-based; conditions: Homo sapiens; for GI50: MDA-MB-468; for inhibition at 10 µM: MDA-MB-468, read-out: percent growth inhibition
Leukaemia cell lines = assay: NCI-60 SRB growth inhibition, subpanel; format: cell-based, human; conditions: Homo sapiens, read-out: GI50 MG-MID
MDA-MB-231/ATCC = assay: NCI-60 SRB growth inhibition, one-dose and five-dose; format: cell-based; conditions: Homo sapiens; for GI50: MDA-MB-231; for inhibition at 10 µM: MDA-MB-231, read-out: percent growth inhibition
OVCAR-8 = assay: as above; format: cell-based; conditions: Homo sapiens; for GI50: OVCAR-8; for inhibition at 10 µM: OVCAR-8, read-out: percent growth inhibition
Melanoma cell lines = assay: NCI-60 SRB growth inhibition, subpanel; format: cell-based, human; conditions: Homo sapiens, read-out: GI50 MG-MID
Breast cancer cell lines = assay: NCI-60 SRB growth inhibition, subpanel; format: cell-based, human; conditions: Homo sapiens, read-out: GI50 MG-MID
PC-3 = assay: NCI-60 SRB growth inhibition, one-dose and five-dose; format: cell-based; conditions: Homo sapiens; for GI50: PC-3; for inhibition at 10 µM: PC-3, read-out: percent growth inhibition
UACC-257 = assay: as above; format: cell-based; conditions: Homo sapiens; for GI50: UACC-257; for inhibition at 10 µM: UACC-257, read-out: percent growth inhibition
KM12 = assay: as above; format: cell-based; conditions: Homo sapiens; for GI50: KM12; for inhibition at 10 µM: KM12, read-out: percent growth inhibition

CC(=O)Nc1ccc(/C=C/C(=O)c2cccc(NCc3ccc(C)cc3)c2)cc1 [Compound 5f, (E)-N-(4–(3-(3-((4-methylbenzyl)amino)phenyl)-3-oxoprop-1-en-1-yl)phenyl)acetamide]
GI50 (SW-620): 2.17 µM | inhibition at 10 µM (SW-620): 156% | GI50 (U251): 3.89 µM | inhibition at 10 µM (U251): 127% | GI50 [1]: 10.5 µM | GI50 (SN12C): 7.76 µM | inhibition at 10 µM (SN12C): 88% | GI50 (M14): 14 µM | inhibition at 10 µM (M14): 54.7% | GI50 (NCI-H23): 10.4 µM | inhibition at 10 µM (NCI-H23): 26.2% | GI50 (RPMI-8226): 2.29 µM | inhibition at 10 µM (RPMI-8226): 105% | GI50 [2]: 10.1 µM | GI50 (MOLT-4): 2.69 µM | inhibition at 10 µM (MOLT-4): 62% | IC50 (Human VEGFR-2): 0.89 ± 0.009 µM | GI50 (UO-31): 6.78 µM | inhibition at 10 µM (UO-31): 50.2% | GI50 (EKVX): 12.6 µM | inhibition at 10 µM (EKVX): 20.9% | GI50 (Renal cancer cell lines): 11.4 µM | GI50 (SK-MEL-28): 15.2 µM | inhibition at 10 µM (SK-MEL-28): 25% | GI50 (HL-60(TB)): 3.99 µM | inhibition at 10 µM (HL-60(TB)): 52% | GI50 at 48 h [3]: > 100 µM | Safety index [4]: >1 | GI50 (TK-10): 13.8 µM | inhibition at 10 µM (TK-10): -10.1% | GI50 (Colon cancer cell lines): 7.86 µM | GI50 (SK-OV-3): 25.8 µM | inhibition at 10 µM (SK-OV-3): 31.6% | GI50 (NSCLC cell lines): 13.4 µM | GI50 (CNS cancer cell lines): 9.73 µM | GI50 (MDA-MB-468): 4.23 µM | inhibition at 10 µM (MDA-MB-468): 85.6% | GI50 (Leukaemia cell lines): 2.73 µM | GI50 (MDA-MB-231/ATCC): 3.7 µM | inhibition at 10 µM (MDA-MB-231/ATCC): 89.4% | GI50 (OVCAR-8): 2.98 µM | inhibition at 10 µM (OVCAR-8): 88.1% | GI50 (Melanoma cell lines): 10.5 µM | GI50 (Breast cancer cell lines): 7.03 µM | GI50 (PC-3): 12.7 µM | inhibition at 10 µM (PC-3): 67.2% | GI50 (UACC-257): 14.2 µM | inhibition at 10 µM (UACC-257): 15.7% | GI50 (KM12): 7.04 µM | inhibition at 10 µM (KM12): 136%

CC(=O)Nc1ccc(/C=C/C(=O)c2cccc(NCc3ccc(CO)cc3)c2)cc1 [Compound 5j, (E)-N-(4–(3-(3-((4-(hydroxymethyl)benzyl)amino)phenyl)-3-oxoprop-1-en-1-yl)phenyl) acetamide]
GI50 (SW-620): 4.27 µM | inhibition at 10 µM (SW-620): 157% | GI50 (U251): 3.6 µM | inhibition at 10 µM (U251): 195% | GI50 [1]: 12.4 µM | inhibition at 10 µM (SN12C): 149% | GI50 (M14): 14.3 µM | inhibition at 10 µM (M14): 146% | GI50 (NCI-H23): 13.9 µM | inhibition at 10 µM (NCI-H23): 95.9% | GI50 (RPMI-8226): 2.84 µM | inhibition at 10 µM (RPMI-8226): 134% | GI50 [2]: 8.67 µM | GI50 (MOLT-4): 2.85 µM | inhibition at 10 µM (MOLT-4): 120% | IC50 (Human VEGFR-2): 0.82 ± 0.016 µM | GI50 (UO-31): 10.7 µM | GI50 (EKVX): 14.4 µM | inhibition at 10 µM (EKVX): 88.9% | GI50 (Renal cancer cell lines): 13.3 µM | GI50 (SK-MEL-28): 13.4 µM | inhibition at 10 µM (SK-MEL-28): 167% | GI50 (HL-60(TB)): 11.6 µM | inhibition at 10 µM (HL-60(TB)): 138% | GI50 at 48 h [3]: > 100 µM | Safety index [4]: >1 | GI50 (TK-10): 16.1 µM | inhibition at 10 µM (TK-10): 95.1% | GI50 (Colon cancer cell lines): 7.35 µM | GI50 (SK-OV-3): 16.3 µM | inhibition at 10 µM (SK-OV-3): 4.73% | GI50 (NSCLC cell lines): 13.9 µM | GI50 (CNS cancer cell lines): 10.1 µM | GI50 (MDA-MB-468): 6.27 µM | inhibition at 10 µM (MDA-MB-468): 171% | GI50 (Leukaemia cell lines): 5.36 µM | GI50 (MDA-MB-231/ATCC): 6.79 µM | GI50 (OVCAR-8): 14.8 µM | inhibition at 10 µM (OVCAR-8): 130% | GI50 (Melanoma cell lines): 11.5 µM | GI50 (Breast cancer cell lines): 10.1 µM | GI50 (PC-3): 12.3 µM | inhibition at 10 µM (PC-3): 81.8% | GI50 (UACC-257): 11.7 µM | inhibition at 10 µM (UACC-257): 135% | GI50 (KM12): 3.93 µM | inhibition at 10 µM (KM12): 158%

Cc1ccc(CNc2cccc(C(=O)/C=C/c3cccnc3)c2)cc1 [Compound 5a, (E)-1–(3-((4-methylbenzyl)amino)phenyl)-3-(pyridin-3-yl)prop-2-en-1-one]
GI50 (SW-620): 2.03 µM | inhibition at 10 µM (SW-620): 173% | GI50 (U251): 9.87 µM | inhibition at 10 µM (U251): 193% | GI50 [1]: 11.4 µM | GI50 (SN12C): 12.6 µM | inhibition at 10 µM (SN12C): 118% | GI50 (M14): 13.1 µM | inhibition at 10 µM (M14): 92.7% | GI50 (NCI-H23): 12.2 µM | inhibition at 10 µM (NCI-H23): 47.9% | GI50 (RPMI-8226): 1.76 µM | inhibition at 10 µM (RPMI-8226): 98.6% | GI50 [2]: 13.8 µM | GI50 (MOLT-4): 3.54 µM | inhibition at 10 µM (MOLT-4): 57.3% | IC50 (Human VEGFR-2): 2 ± 0.023 µM | GI50 (UO-31): 11.7 µM | inhibition at 10 µM (UO-31): 47.5% | GI50 (EKVX): 12.8 µM | inhibition at 10 µM (EKVX): 52.3% | GI50 (Renal cancer cell lines): 13.3 µM | GI50 (SK-MEL-28): 14.7 µM | inhibition at 10 µM (SK-MEL-28): 71.6% | GI50 (HL-60(TB)): 6.25 µM | inhibition at 10 µM (HL-60(TB)): 54.6% | GI50 at 48 h [3]: > 100 µM | Safety index [4]: >1 | GI50 (TK-10): 14.4 µM | inhibition at 10 µM (TK-10): 18.9% | GI50 (Colon cancer cell lines): 8.84 µM | GI50 (SK-OV-3): 16.1 µM | inhibition at 10 µM (SK-OV-3): 60.2% | GI50 (NSCLC cell lines): 13.7 µM | GI50 (CNS cancer cell lines): 13.2 µM | GI50 (MDA-MB-468): 6.3 µM | inhibition at 10 µM (MDA-MB-468): 153% | GI50 (Leukaemia cell lines): 3.34 µM | GI50 (MDA-MB-231/ATCC): 11.3 µM | inhibition at 10 µM (MDA-MB-231/ATCC): 110% | GI50 (OVCAR-8): 13.1 µM | inhibition at 10 µM (OVCAR-8): 88.3% | GI50 (Melanoma cell lines): 10.6 µM | GI50 (Breast cancer cell lines): 9.21 µM | GI50 (PC-3): 14.2 µM | inhibition at 10 µM (PC-3): 84.8% | GI50 (UACC-257): 14.4 µM | inhibition at 10 µM (UACC-257): 39.6% | GI50 (KM12): 8.36 µM | inhibition at 10 µM (KM12): 155%
